We go through 3 molecules from ChEMBL document CHEMBL4715878 (J Med Chem, 2020).

Calls of active or inactive are those of the source. The rule behind the calls is not given here.

In data set [1] the test system is MDA-MB-231. The experiment in a line: Induction of apoptosis in human MDA-MB-231 cells assessed as accumulation in late apoptotic cells at 5 uM incubated for 72 hrs by Annexin V-FITC/PI staining based flow cytometry analysis. Type of data set: functional, cell-based. Background: A flow cytometer gives signals particle by particle.
The test system of data set [2] is MDA-MB-231. The experiment in a line: Induction of apoptosis in human MDA-MB-231 cells assessed as accumulation in early apoptotic cells at 5 uM incubated for 72 hrs by Annexin V-FITC/PI staining based flow cytometry analysis. It is filed as functional, cell-based.
In data set [3] the test system is MCF7. The experiment in a line: Induction of apoptosis in human MCF7 cells assessed as accumulation in late apoptotic cells at 5 uM incubated for 72 hrs by Annexin V-FITC/PI staining based flow cytometry analysis. Type of data set: functional, cell-based.
Data set [4] relates to MCF7. The experiment in a line: Induction of apoptosis in human MCF7 cells assessed as accumulation in early apoptotic cells at 5 uM incubated for 72 hrs by Annexin V-FITC/PI staining based flow cytometry analysis. It is filed as functional, cell-based.
For data set [5], the system named is BT-474. The experiment in a line: Induction of apoptosis in human BT474 cells assessed as increase in late apoptotic cells at 0.5 to 5 uM incubated for 72 hrs by Annexin V-FITC/PI staining based flow cytometry analysis relative to control. Particulars: dose 0.5-5 µM. Type of data set: functional.
Data set [6] deals with BT-474. Kind of data set: Induction of apoptosis in human BT474 cells assessed as increase in early apoptotic cells at 0.5 to 5 uM incubated for 72 hrs by Annexin V-FITC/PI staining based flow cytometry analysis relative to control. Type of data set: functional. Particulars: dose 0.5-5 µM.
The subject of data set [7] is BT-474. Kind of data set: Induction of apoptosis in human BT474 cells assessed as increase in early apoptotic cells at 0.2 uM incubated for 72 hrs by Annexin V-FITC/PI staining based flow cytometry analysis relative to control. Type of data set: functional.
The subject of data set [8] is BT-474. The experiment in a line: Induction of apoptosis in human BT474 cells assessed as increase in early apoptotic cells incubated for 72 hrs by Annexin V-FITC/PI staining based flow cytometry analysis. Type of data set: functional, cell-based. The following applies: dose 0.1-5 µM.
Data set [9] deals with MDA-MB-231. The experiment in a line: Antiproliferative activity against human MDA-MB-231 cells assessed as reduction in cell viability incubated for 72 hrs by WST8 assay. Type of data set: functional, cell-based. Particulars: MDA-MB-231, 72 h. In general terms: Tetrazolium dyes change colour on reduction, which living cells bring about.
Data set [10] concerns MCF7. Kind of data set: Antiproliferative activity against human MCF7 cells assessed as reduction in cell viability incubated for 72 hrs by WST8 assay. Type of data set: functional, cell-based. The following applies: MCF7, 72 h.
The target in data set [11] is T1, Receptor tyrosine-protein kinase erbB-2 (Homo sapiens, UniProt P04626). Kind of data set: Inhibition of wild-type HER2 (unknown origin) at 0.5 nM in presence of substrate incubated for 30 mins by ADP-Glo assay relative to control. (ADP-Glo first removes unused ATP, then detects ADP through luciferase.)
T1 sequence (P04626 whole entry): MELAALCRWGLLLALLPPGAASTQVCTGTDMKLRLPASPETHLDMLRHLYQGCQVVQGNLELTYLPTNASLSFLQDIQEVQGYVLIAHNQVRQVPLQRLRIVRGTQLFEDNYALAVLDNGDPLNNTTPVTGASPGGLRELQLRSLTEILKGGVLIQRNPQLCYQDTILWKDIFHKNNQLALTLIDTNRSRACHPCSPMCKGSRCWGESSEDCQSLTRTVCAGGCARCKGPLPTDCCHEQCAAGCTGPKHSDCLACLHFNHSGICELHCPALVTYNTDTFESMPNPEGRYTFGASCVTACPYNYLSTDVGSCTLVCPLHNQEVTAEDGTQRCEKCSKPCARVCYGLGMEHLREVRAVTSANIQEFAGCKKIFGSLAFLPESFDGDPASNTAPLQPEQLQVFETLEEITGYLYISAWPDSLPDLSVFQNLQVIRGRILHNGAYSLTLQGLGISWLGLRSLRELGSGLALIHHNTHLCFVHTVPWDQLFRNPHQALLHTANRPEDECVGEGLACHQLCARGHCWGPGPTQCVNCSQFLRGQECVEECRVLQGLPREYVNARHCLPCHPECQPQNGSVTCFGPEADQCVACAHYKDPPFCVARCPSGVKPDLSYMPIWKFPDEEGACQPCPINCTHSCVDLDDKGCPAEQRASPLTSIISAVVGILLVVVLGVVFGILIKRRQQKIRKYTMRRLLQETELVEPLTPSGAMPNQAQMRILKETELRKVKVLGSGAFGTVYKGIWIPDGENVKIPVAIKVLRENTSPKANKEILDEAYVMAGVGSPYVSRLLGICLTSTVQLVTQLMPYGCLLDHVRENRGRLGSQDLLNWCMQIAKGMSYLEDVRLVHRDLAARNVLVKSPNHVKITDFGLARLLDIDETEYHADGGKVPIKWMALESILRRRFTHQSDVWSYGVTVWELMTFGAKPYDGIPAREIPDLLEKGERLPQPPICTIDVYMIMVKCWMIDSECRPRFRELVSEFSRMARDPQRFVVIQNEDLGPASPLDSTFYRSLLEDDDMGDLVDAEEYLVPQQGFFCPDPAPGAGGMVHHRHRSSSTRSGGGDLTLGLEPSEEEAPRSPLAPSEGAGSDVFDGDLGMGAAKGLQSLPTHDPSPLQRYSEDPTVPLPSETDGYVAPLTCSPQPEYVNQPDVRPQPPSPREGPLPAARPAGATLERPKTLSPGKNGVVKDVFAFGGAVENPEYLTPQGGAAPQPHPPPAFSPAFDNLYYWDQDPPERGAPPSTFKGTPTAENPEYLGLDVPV
In data set [12] the test system is BT-474. Kind of data set: Antiproliferative activity against human BT474 cells assessed as reduction in cell viability incubated for 72 hrs by WST8 assay. It is filed as functional, cell-based. The following applies: BT-474, 72 h.
The test system of data set [13] is AU565. The experiment in a line: Antiproliferative activity against human AU565 cells assessed as reduction in cell viability incubated for 72 hrs by WST8 assay. It is filed as functional, cell-based. Particulars: AU565, 72 h.
Data set [14] deals with T1, Receptor tyrosine-protein kinase erbB-2. The experiment in a line: Inhibition of HER2 (unknown origin) in presence of substrate incubated for 30 mins by ADP-Glo assay.
The test system of data set [15] is MCF7. Kind of data set: Potency index, ratio of lapatinib IC50 to test compound IC50 for antiproliferative activity against human MCF7 cells. It is filed as functional.
For data set [16], the system named is BT-474. The experiment in a line: Antitumor activity against human BT474 cells xenografted in athymic nude mouse assessed as reduction in metastasis of cells at 50 mg/kg, po administered via oral gavage for 5 times per week for 55 days measured post-last dose. Type of data set: functional, organism-based. Particulars: time 55.0 day.
In data set [17] the test system is BT-474. Kind of data set: Antitumor activity against human BT474 cells xenografted in athymic nude mouse assessed as suppression of tumor growth by measuring decrease in number of Ki67 positive cells at 50 mg/kg, po administered via oral gavage for 5 times per week for 55 days measured post-last dose by Ki67-staining based immunohistochemistry. Type of data set: functional, organism-based. Particulars: time 55.0 day.

Data set [18] deals with BT-474. Kind of data set: Antitumor activity against human BT474 cells xenografted in athymic nude mouse assessed as inflammation in tumors at 50 mg/kg, po administered via oral gavage for 5 times per week for 55 days measured post-last dose by H and E staining based immunohistochemical analysis. Type of data set: functional, organism-based. The following applies: time 55.0 day.

Data set [19] has as its system BT-474. Kind of data set: Antitumor activity against human BT474 cells xenografted in athymic nude mouse assessed as appearance of tumor fibrosis at 50 mg/kg, po administered via oral gavage for 5 times in a week for 55 days measured post-last dose by H and E staining based immunohistochemical analysis. The following applies: time 55.0 day. It is filed as functional, organism-based.

Data set [20] deals with BT-474. The experiment in a line: Antitumor activity against human BT474 cells xenografted in athymic nude mouse assessed as tumor necrosis at 50 mg/kg, po administered via oral gavage for 5 times in a week for 55 days measured post-last dose by H and E staining based immunohistochemical analysis. It is filed as functional, organism-based. Particulars: time 55.0 day.
Data set [21] concerns BT-474. Kind of data set: Antitumor activity against human BT474 cells xenografted in athymic nude mouse assessed as tumor weight at 50 mg/kg, po administered via oral gavage for 5 times in a week for 55 days measured post last dose (reference value: 2.046 g). It is filed as functional. The following applies: time 55 day.
The test system of data set [22] is BT-474. The experiment in a line: Antitumor activity against human BT474 cells xenografted in athymic nude mouse assessed as tumor growth inhibition at 50 mg/kg, po administered via oral gavage for 5 times in a week for 55 days measured post last dose. It is filed as functional, organism-based. The following applies: time 55.0 day.
In data set [23] the test system is AU565. Kind of data set: Down regulation of HER2 expression in human AU565 cells at 0.1 IC50 incubated for 24 hrs by western blot analysis. Type of data set: functional, cell-based.
Data set [24] relates to T47D. Kind of data set: Antiproliferative activity against human T47D cells assessed as cell growth inhibition after 48 hrs by SRB assay. Type of data set: functional. Particulars: pooled result: one value given for 5 cell lines, strains, targets or settings.
A short description of data set [25]: Antiproliferative activity against human BC assessed as lethality at 10 uM after 48 hrs by SRB assay relative to control. It is filed as functional.
Data set [26] in a line: Antiproliferative activity against human BC assessed as cell growth inhibition at 10 uM after 48 hrs by SRB assay relative to control. Type of data set: functional. Particulars: read-out: GI.
Data set [27] is described as follows: Antiproliferative activity against human MDA-MB-231 cells assessed as lethality at 10 uM after 48 hrs by SRB assay relative to control. Type of data set: functional, MDA-MB-23.
For data set [28], the system named is MCF7. The experiment in a line: Antiproliferative activity against human MCF7 cells assessed as lethality at 10 uM after 48 hrs by SRB assay relative to control. It is filed as functional.
For data set [29], the system named is MDA-MB-468. The experiment in a line: Antiproliferative activity against human MDA-MB-468 cells assessed as cell growth inhibition after 48 hrs by SRB assay. It is filed as functional.
Data set [30] concerns MDA-MB-468. Kind of data set: Antiproliferative activity against human MDA-MB-468 cells assessed as lethality at 10 uM after 48 hrs by SRB assay relative to control. Type of data set: functional.
In data set [31] the test system is MDA-MB-468. The experiment in a line: Antiproliferative activity against human MDA-MB-468 cells assessed as cell growth inhibition at 10 uM after 48 hrs by SRB assay relative to control. It is filed as functional. The following applies: read-out: GI.
Data set [32] concerns Panel NCI-60 (60 carcinoma cell lines). Kind of data set: Antiproliferative activity against human NCI60 cells assessed as lethality at 10 uM after 48 hrs by SRB assay relative to control. Type of data set: functional.
For data set [33] the test system is unchanged. The experiment in a line: Antiproliferative activity against human NCI60 cells assessed as mean cell growth at 10 uM after 48 hrs by SRB assay relative to control. It is filed as functional.
The target of data set [34] is T1, Receptor tyrosine-protein kinase erbB-2. Kind of data set: Inhibition of wild-type HER2 (unknown origin) at 100 nM in presence of substrate incubated for 30 mins by ADP-Glo assay relative to control.
Data set [35] in a line: in vitro. The following applies: CD-1, mouse, liver microsomes.
Description: Metabolic stability in CD-1 mouse liver microsomes assessed as parent compound remaining at 100 uM measured after 60 mins by LC-MS/MS analysis
A short description of data set [36]: in vitro. Particulars: CD-1, mouse, liver microsomes. The source holds these as a separate data set.
Description: Metabolic stability in CD-1 mouse liver microsomes assessed as parent compound remaining at 100 uM measured after 60 mins in presence of NADPH by LC-MS/MS analysis
Data set [37] in a line: in vitro. Particulars: CD-1, mouse, liver microsomes. The source holds these as a separate data set.
A short description of data set [38]: in vitro. Particulars: CD-1, mouse, microsomes.
Data set [39] can be described thus: in vitro. Particulars: CD-1, mouse, liver microsomes. The source holds these as a separate data set.
Data set [40] in a line: Selectivity ratio of IC50 for antiproliferative activity against human AU565 cells to IC50 for antiproliferative activity against human BT474 cells. Type of data set: functional.

By IC50 is commonly meant the concentration that gives 50% inhibition. The term inhibition denotes the share of the control response that was lost under treatment. Regarding `CN1CCN(CC(=O)Nc2ccc3ncnc(Nc4ccc(OCc5cccc(F)c5)c(Cl)c4)c3c2)CC1`, the outcome in data set [1], in [2], in data set [3] and in data set [4] was inactive. Moreover, the entries for the “fold change (FC)” value in data set [5], in data set [6] and in data set [7] were 2, 10 and 7, respectively. In addition, in data set [8], the Activity entry is “Dose-dependent effect”. Besides, the IC50 in [9] stood at 1360 nM; in data set [10], 1780 nM; in data set [12] it was 133 nM; in data set [13], 134 nM; in data set [14], 6.1 nM. Besides, in [11], the inhibition is 3%. Further, in [15], the “Ratio IC50” value is given as “<=20”.

What is called GI50 is the concentration that inhibits growth by half. For orientation: share remaining means what is left of the initial amount, in per cent. High values mean less turnover, low ones more turnover. Broadly, the CLint scaled is the rate of metabolic loss divided by the concentration. As usually defined, the microsomal CLint is a measure of how fast metabolising enzymes remove a compound, apart from limits set by blood flow. Read a low microsomal CLint as greater metabolic stability. Usually half-life stands for the time in which the quantity being followed falls by half. For `CN1CCN(CCCOc2ccc3ncnc(Nc4ccc(OCc5cccc(F)c5)c(Cl)c4)c3c2)CC1`, the outcome in data set [16], in data set [17], in data set [18], in data set [19], in data set [20] and in [23] was Active. The Activity in data set [21] is 1.223 g; in data set [8], “Dose-dependent effect”; in data set [25], “<=78.7%”; in data set [27], 11.7%; in [28] it was 11.7%; in data set [30] it was 11.7%. The Activity in data set [32] came to 1.3%; in data set [33] it was 11.85%. In addition, in data set [22], the TGI result was “Active”. The result in [1], in data set [2], in data set [3] and in [4] was inactive. Further, the “fold change (FC)” value in data set [5] was “<=3”; in data set [6] it was “<=6”. The GI50 in [24] turned out to be 1370 nM; in data set [29], 400 nM. Also, the inhibition of growth at 10 µM in data set [26] is at most 78.7%; in data set [31], 18.8%. Further, the IC50 was found to be 737 nM in data set [9]; 1930 nM in [10]; 83 nM in data set [12]; 99 nM in [13]; 8.3 nM in [14]. Besides, the inhibition in [34] was 91%; in data set [11] it was 3%. Further, the “Ratio IC50” value in [15] is “<=20”. Besides, the amount remaining at 1 h, 100 µM in data set [35] is 93.5%; in data set [36], 46.4%. The CLint scaled at 1 h, 100 µM in data set [37] was 95.7 mL/min/kg. For the same molecule, the microsomal CLint at 1 h, 100 µM in data set [38] was found to be 24.2 µL/min/mg. In addition, the half-life at 1 h, 100 µM in data set [39] was 57.4 min.

Take `CN(C)CC(=O)Nc1ccc2ncnc(Nc3ccc(Oc4cccc(F)c4)c(Cl)c3)c2c1`: the outcome in data set [5] was inactive. In addition, in [6], the “fold change (FC)” value is reported as “<=6”. Further, the Activity entry in [8] was “Dose-dependent effect”. Also, the IC50 is 6560 nM in [9], 321 nM in data set [10], 107 nM in [12] and 663 nM in [13]. The “Ratio IC50” value in [40] is reported as 6; in [15] it was “<=20”.
